Test results taken from ChEMBL document CHEMBL1201862, “PubChem BioAssay data set” (2004).
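1) Cells in 96-well plates. 2) Compound, 48 h, 5 concentrations. 3) Linear interpolation between surrounding doses. 4) Unreached endpoint = highest concentration. GI50: concentration for 50% inhibition of growth.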 Activity calls are given as the source filed them. No stated cut-off is given here; in the data, active = GI50 up to about 1.1 µM and inactive = higher.

What was measured:
Test in all cases: DTP human tumour cell line panel, 48 h
DMS-273 = tested on: DMS-273
BT-549 = tested on: BT-549
NCI/ADR-RES = tested on: NCI/ADR-RES
MDA-MB-435 = tested on: MDA-MB-435
K562 = tested on: K562
UACC-62 = tested on: UACC-62
A498 = tested on: A498
SNB-19 = tested on: SNB-19
A549 = tested on: A549
U-251 = tested on: U-251
DU-145 = tested on: DU-145
NCI-H460 = tested on: NCI-H460
ACHN = tested on: ACHN
SF-539 = tested on: SF-539
Hs-578T = tested on: Hs-578T
DLD-1 = tested on: DLD-1
SR = tested on: SR
OVCAR-4 = tested on: OVCAR-4
MDA-MB-231 = tested on: MDA-MB-231
LOX IMVI = tested on: LOX IMVI
PC-3 = tested on: PC-3
KM12 = tested on: KM12
Malme-3M = tested on: Malme-3M
SW-620 = tested on: SW-620
KM-20L2 = tested on: KM-20L2
RPMI-8226 = tested on: RPMI-8226
IGROV-1 = tested on: IGROV-1
MCF7 = tested on: MCF7
DMS-114 = tested on: DMS-114
SK-MEL-28 = tested on: SK-MEL-28
NCI-H522 = tested on: NCI-H522
HOP-18 = tested on: HOP-18
COLO 205 = tested on: COLO 205
MOLT-4 = tested on: MOLT-4
SK-OV-3 = tested on: SK-OV-3
786-0 = tested on: 786-0
HCT-116 = tested on: HCT-116
RXF 393 = tested on: RXF 393
CCRF-CEM = tested on: CCRF-CEM
HCC 2998 = tested on: HCC 2998
UO-31 = tested on: UO-31
M19-MEL = tested on: M19-MEL
UACC-257 = tested on: UACC-257
HT-29 = tested on: HT-29
SK-MEL-5 = tested on: SK-MEL-5
SF-268 = tested on: SF-268
EKVX = tested on: EKVX
XF498 = tested on: XF498
OVCAR-5 = tested on: OVCAR-5
SK-MEL-2 = tested on: SK-MEL-2
CAKI-1 = tested on: CAKI-1
HOP-62 = tested on: HOP-62
SNB-78 = tested on: SNB-78
SN12C = tested on: SN12C
TK-10 = tested on: TK-10
NCI-H226 = tested on: NCI-H226
SF-295 = tested on: SF-295
HCT-15 = tested on: HCT-15
NCI-H23 = tested on: NCI-H23
OVCAR-3 = tested on: OVCAR-3
LXFL 529 = tested on: LXFL 529
SNB-75 = tested on: SNB-75
RXF 631 = tested on: RXF 631
HL-60 = tested on: HL-60
OVCAR-8 = tested on: OVCAR-8
HOP-92 = tested on: HOP-92
M14 = tested on: M14
MDA-N = tested on: MDA-N
T47D = tested on: T47D

SMILES: Cc1oc2c(c1C(=O)c1ccccc1)C(=O)c1ccccc1C2=O
- GI50 (DMS-273): 8.34 µM (inactive)
- GI50 (BT-549): 6.19 µM (inactive)
- GI50 (NCI/ADR-RES): 3.52 µM (inactive)
- GI50 (MDA-MB-435): 1.58 µM (inactive)
- GI50 (K562): 2.23 µM (inactive)
- GI50 (UACC-62): 2.98 µM (inactive)
- GI50 (A498): 19.7 µM (inactive)
- GI50 (SNB-19): 9.91 µM (inactive)
- GI50 (A549): 14.7 µM (inactive)
- GI50 (U-251): 7.24 µM (inactive)
- GI50 (DU-145): 11.8 µM (inactive)
- GI50 (NCI-H460): 9.38 µM (inactive)
- GI50 (ACHN): 4.65 µM (inactive)
- GI50 (SF-539): 10.6 µM (inactive)
- GI50 (Hs-578T): 4.57 µM (inactive)
- GI50 (DLD-1): 5.02 µM (inactive)
- GI50 (SR): 3.24 µM (inactive)
- GI50 (OVCAR-4): 3.21 µM (inactive)
- GI50 (MDA-MB-231): 2.24 µM (inactive)
- GI50 (LOX IMVI): 2.22 µM (inactive)
- GI50 (PC-3): 6.79 µM (inactive)
- GI50 (KM12): 6.55 µM (inactive)
- GI50 (Malme-3M): 1.81 µM (inactive)
- GI50 (SW-620): 1.92 µM (inactive)
- GI50 (KM-20L2): 17.7 µM (inactive)
- GI50 (RPMI-8226): 2.85 µM (inactive)
- GI50 (IGROV-1): 4.99 µM (inactive)
- GI50 (MCF7): 4.07 µM (inactive)
- GI50 (DMS-114): 2.45 µM (inactive)
- GI50 (SK-MEL-28): 11.1 µM (inactive)
- GI50 (NCI-H522): 2.3 µM (inactive)
- GI50 (HOP-18): 16.6 µM (inactive)
- GI50 (COLO 205): 13.9 µM (inactive)
- GI50 (MOLT-4): 2.47 µM (inactive)
- GI50 (SK-OV-3): 12.5 µM (inactive)
- GI50 (786-0): 4.38 µM (inactive)
- GI50 (HCT-116): 3.3 µM (inactive)
- GI50 (RXF 393): 3.48 µM (inactive)
- GI50 (CCRF-CEM): 2.16 µM (inactive)
- GI50 (HCC 2998): 15.5 µM (inactive)
- GI50 (UO-31): 9.75 µM (inactive)
- GI50 (M19-MEL): 2.18 µM (inactive)
- GI50 (UACC-257): 3.61 µM (inactive)
- GI50 (HT-29): 17.8 µM (inactive)
- GI50 (SK-MEL-5): 1.24 µM (inactive)
- GI50 (SF-268): 10.8 µM (inactive)
- GI50 (EKVX): 12.6 µM (inactive)
- GI50 (XF498): 2.32 µM (inactive)
- GI50 (OVCAR-5): 15.2 µM (inactive)
- GI50 (SK-MEL-2): 3.26 µM (inactive)
- GI50 (CAKI-1): 4.23 µM (inactive)
- GI50 (HOP-62): 14.2 µM (inactive)
- GI50 (SNB-78): > 100 µM (inactive)
- GI50 (SN12C): 11.7 µM (inactive)
- GI50 (TK-10): 19.1 µM (inactive)
- GI50 (NCI-H226): 13.9 µM (inactive)
- GI50 (SF-295): 9.27 µM (inactive)
- GI50 (HCT-15): 4.51 µM
- GI50 (NCI-H23): 2.01 µM (inactive)
- GI50 (OVCAR-3): 2.26 µM (inactive)
- GI50 (LXFL 529): 1.62 µM (inactive)
- GI50 (SNB-75): 6.78 µM (inactive)
- GI50 (RXF 631): 17.7 µM (inactive)
- GI50 (HL-60): 2.28 µM (inactive)
- GI50 (OVCAR-8): 5.06 µM (inactive)
- GI50 (HOP-92): 2.21 µM (inactive)
- GI50 (M14): 4.28 µM (inactive)
- GI50 (MDA-N): 2 µM (inactive)
- GI50 (T47D): 3.83 µM (inactive)
